Measurements as given in patent US12077503B2, “Substituted cyclic amides and their use as herbicides” (FMC CORPORATION, priority 2015, dated 2024).

How the values were obtained:
Format in all cases: in vivo
[1] = system: sedge, umbrella (small-flower umbrella sedge, Cyperus difformis); assay: Test B flooded paddy test; conditions: Cyperus difformis, 250 g ai/ha, Flood; 0 to 100 scale where 0 is no effect and 100 is complete control; read-out: Sedge, Umbrella plant response rating
Procedure, shortened: (§1)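 Flooding to 3 cm over soil accompanied treatment, which consisted of adding compound to the standing water around 2-leaf plants; depth was then maintained. Visual assessment versus controls followed at 13 to 15 d (scale 0–100, 0 meaning no effect).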

[2] = system: barnyardgrass (Echinochloa crus-galli); assay: Test B flooded paddy test; conditions: Echinochloa crus-galli, 250 g ai/ha, Flood; 0 to 100 scale where 0 is no effect and 100 is complete control; read-out: Barnyardgrass plant response rating
Procedure, shortened: as §1

[3] = system: rice (Oryra sativa); assay: Test B flooded paddy test; conditions: Oryza sativa, 250 g ai/ha, Flood; 0 to 100 scale where 0 is no effect and 100 is complete control; read-out: Rice plant response rating
Procedure, shortened: as §1

[4] = system: ducksalad (Heteranthera limosa); assay: Test B flooded paddy test; conditions: Heteranthera limosa, 250 g ai/ha, Flood; 0 to 100 scale where 0 is no effect and 100 is complete control; read-out: Ducksalad plant response rating
Procedure, shortened: as §1

[5] = system: ryegrass, Italian (Italian ryegrass, Lolium multiflorum); assay: Test A preemergence; conditions: Lolium multiflorum, pre-emergence, 240 h, 0 to 100 scale where 0 is no effect and 100 is complete control, read-out: Ryegrass, Italian plant response rating
Procedure, shortened: (§2)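 Preemergence directed soil spray on seeded pots, or postemergence application to plants 2–10 cm, one- to two-leaf. Solvent mixture non-phytotoxic, with surfactant. Scored ~10 d later, visually, 0–100 vs untreated.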

[6] = system: pigweed (Amaranthus retroflexus); assay: Test A preemergence; conditions: Amaranthus retroflexus, pre-emergence, 240 h, 0 to 100 scale where 0 is no effect and 100 is complete control, read-out: Pigweed plant response rating
[7] = system: barnyardgrass (Echinochloa crus-galli); assay: Test A preemergence; conditions: Echinochloa crus-galli, pre-emergence, 240 h, 0 to 100 scale where 0 is no effect and 100 is complete control, read-out: Barnyardgrass plant response rating
Procedure, shortened: as §2

[8] = system: giant foxtail (Setaria faberii); assay: Test A preemergence; conditions: Setaria faberi, pre-emergence, 240 h, 0 to 100 scale where 0 is no effect and 100 is complete control, read-out: Foxtail, Giant plant response rating
Procedure, shortened: as §2

[9] = system: Kochia (Kochia scoparia); assay: Test A preemergence; conditions: Bassia scoparia, pre-emergence, 240 h, 0 to 100 scale where 0 is no effect and 100 is complete control, read-out: Kochia plant response rating
Procedure, shortened: as §2

[10] = system: ragweed (common ragweed, Ambrosia elatior); assay: Test A preemergence; conditions: Ambrosia artemisiifolia, pre-emergence, 240 h, 0 to 100 scale where 0 is no effect and 100 is complete control, read-out: Ragweed plant response rating
Procedure, shortened: as §2

[11] = system: ryegrass, Italian (Italian ryegrass, Lolium multiflorum); assay: Test A postemergence; conditions: Lolium multiflorum, post-emergence, 240 h, 125 g ai/ha, postemergence, visual injury vs untreated controls after approx. 10 d; 0 = no effect, 100 = complete control; read-out: Ryegrass, Italian plant response rating (0 to 100 scale)
Procedure, shortened: as §2

[12] = system: pigweed (Amaranthus retroflexus); assay: Test A postemergence; conditions: Amaranthus retroflexus, post-emergence, 240 h, 125 g ai/ha, postemergence, visual injury vs untreated controls after approx. 10 d; 0 = no effect, 100 = complete control; read-out: Pigweed plant response rating (0 to 100 scale)
Procedure, shortened: as §2

[13] = system: wheat (Triticum aestivum); assay: Test A postemergence; conditions: Triticum aestivum, post-emergence, 240 h, 125 g ai/ha, postemergence, visual injury vs untreated controls after approx. 10 d; 0 = no effect, 100 = complete control; read-out: Wheat plant response rating (0 to 100 scale)
Procedure, shortened: as §2

[14] = system: blackgrass (Alopecurus myosuroides); assay: Test A postemergence; conditions: Alopecurus myosuroides, post-emergence, 240 h
Procedure, shortened: as §2

[15] = system: barnyardgrass (Echinochloa crus-galli); assay: Test A postemergence; conditions: Echinochloa crus-galli, post-emergence, 240 h
Procedure, shortened: as §2

[16] = system: giant foxtail (Setaria faberii); assay: Test A postemergence; conditions: Setaria faberi, post-emergence, 240 h
Procedure, shortened: as §2

[17] = system: Kochia (Kochia scoparia); assay: Test A postemergence; conditions: Bassia scoparia, post-emergence, 240 h
Procedure, shortened: as §2

[18] = system: corn (Zea mays); assay: Test A postemergence; conditions: Zea mays, post-emergence, 240 h
Procedure, shortened: as §2

[19] = system: Galium (catchweed bedstraw, Galium aparine); assay: Test A postemergence; conditions: Galium, post-emergence, 240 h
Procedure, shortened: as §2

[20] = system: ragweed (common ragweed, Ambrosia elatior); assay: Test A postemergence; conditions: Ambrosia artemisiifolia, post-emergence, 240 h, 125 g ai/ha, postemergence, visual injury vs untreated controls after approx. 10 d; 0 = no effect, 100 = complete control; read-out: Ragweed plant response rating (0 to 100 scale)
Procedure, shortened: as §2

[21] = 125 g ai/ha, preemergence, visual injury rating, approximately 10 d

COc1ccc(C(F)(F)F)cc1[C@H]1CN(C)C(=O)[C@@H]1C(=O)Nc1ccccc1SC [Compound 1185]
70%: pest or weed control at 31 g/ha ([7]; 31 g ai/ha, Preemergence)
90%: pest or weed control at 125 g/ha [8, 21]
20%: pest or weed control at 125 g/ha [11] | pest or weed control at 31 g/ha ([15]; Postemergence, 31 g ai/ha, visual injury after approx. 10 d, 0 to 100 scale, 0 no effect, 100 complete control, read-out: Plant response rating, Barnyardgrass) | plant injury at 125 g/ha ([18]; 125 g ai/ha, postemergence, visual injury vs untreated controls after approx. 10 d, 0 = no effect, 100 = complete control, read-out: Corn plant response rating (0 to 100 scale))
40%: plant injury at 125 g/ha [13]
60%: pest or weed control at 250 g/ha [2] | pest or weed control at 125 g/ha [5, 21] | pest or weed control at 125 g/ha ([16]; 125 g ai/ha, postemergence, visual injury vs untreated controls after approx. 10 d, 0 = no effect, 100 = complete control, read-out: Foxtail, Giant plant response rating (0 to 100 scale))
50%: pest or weed control at 250 g/ha [4] | pest or weed control at 31 g/ha ([8]; 31 g ai/ha, Preemergence) | pest or weed control at 125 g/ha ([14]; 125 g ai/ha, postemergence, visual injury vs untreated controls after approx. 10 d, 0 = no effect, 100 = complete control, read-out: Blackgrass plant response rating (0 to 100 scale)) | pest or weed control at 125 g/ha ([15]; 125 g ai/ha, postemergence, visual injury vs untreated controls after approx. 10 d, 0 = no effect, 100 = complete control, read-out: Barnyardgrass plant response rating (0 to 100 scale))
30%: pest or weed control at 31 g/ha ([16]; Postemergence, 31 g ai/ha, visual injury after approx. 10 d, 0 to 100 scale, 0 no effect, 100 complete control, read-out: Plant response rating, Foxtail, Giant)
0%: pest or weed control at 250 g/ha [1] | pest or weed control at 250 g/ha [3] | pest or weed control at 31 g/ha ([5]; 31 g ai/ha, Preemergence) | pest or weed control at 31 g/ha ([6]; 31 g ai/ha, Preemergence) | pest or weed control at 125 g/ha [6, 21] | pest or weed control at 31 g/ha ([9]; 31 g ai/ha, Preemergence) | pest or weed control at 125 g/ha [9, 21] | pest or weed control at 31 g/ha ([10]; 31 g ai/ha, Preemergence) | pest or weed control at 125 g/ha [10, 21] | pest or weed control at 125 g/ha [12] | pest or weed control at 31 g/ha ([14]; Postemergence, 31 g ai/ha, visual injury after approx. 10 d, 0 to 100 scale, 0 no effect, 100 complete control, read-out: Plant response rating, Blackgrass) | pest or weed control at 125 g/ha ([17]; 125 g ai/ha, postemergence, visual injury vs untreated controls after approx. 10 d, 0 = no effect, 100 = complete control, read-out: Kochia plant response rating (0 to 100 scale)) | pest or weed control at 31 g/ha ([17]; Postemergence, 31 g ai/ha, visual injury after approx. 10 d, 0 to 100 scale, 0 no effect, 100 complete control, read-out: Plant response rating, Kochia) | Corn plant response rating (crop injury, 0 = no effect, 100 = complete kill) at 31 g/ha ([18]; Postemergence, 31 g ai/ha, visual injury after approx. 10 d, 0 to 100 scale, 0 no effect, 100 complete control) | pest or weed control at 125 g/ha ([19]; 125 g ai/ha, postemergence, visual injury vs untreated controls after approx. 10 d, 0 = no effect, 100 = complete control, read-out: Galium plant response rating (0 to 100 scale)) | pest or weed control at 31 g/ha ([19]; Postemergence, 31 g ai/ha, visual injury after approx. 10 d, 0 to 100 scale, 0 no effect, 100 complete control, read-out: Plant response rating, Galium) | pest or weed control at 125 g/ha [20]
100%: pest or weed control at 125 g/ha [7, 21]
